Experimental data taken from US4593090A, “Novel nitrosourea compounds, method for preparing same, and pharmaceutical composition containing same” (Gogo Kimura, priority 1981, dated 1986).

What was measured:
Leukemia L1210 [1] = assay: Activity against Leukemia L1210, intraperitoneal, increase in life span of mice; format: in vivo, female mice (BDF1 family); details: for ED (maximum ILS) / ED30: Mus musculus, L1210, ip, ip once a day for 5 successive days; for ED (maximum ILS): daily dosage giving maximum increase of life span, read-out: O.D. (optimum dosage); for ED30: daily dosage increasing average survival days by 30%, read-out: ILS30; for Survivors after 60 days / Max. ILS % / Therapeutic ratio TR: ip; for Survivors after 60 days: 6-membered group; for Max. ILS %: 60-day observation, versus control; for Therapeutic ratio TR: O.D./ILS30
Summary of the method: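 Female BDF1 mice (20 to 23 g, 6 per group) implanted ip with 1×10^5 L1210 cells; test compound given ip or orally once daily for 5 days starting 24 h later. ILS% from mean survival days vs untreated controls over 60 days; T.R. = O.D./ILS30.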

[2] = Acute toxicity (LD50, Behrens-Karber method); format: in vivo, ICR mice; details: mouse, in vivo, ip, mortality during 30 days
Experimental: Test compounds, dissolved or suspended in 0.5% aqueous CMC, were each intraperitoneally administered to ICR mice in a dose of 0.1 ml per 10 g body weight. LD50 (mg/kg) value of each test compound was calculated from the mortality of mice during 30 days by the Behrens-Karber method.

Leukemia L1210 [3] = assay: Activity against Leukemia L1210, oral, increase in life span of mice; format: in vivo, female mice (BDF1 family); details: for ED (maximum ILS) / ED30: Mus musculus, L1210, oral once a day for 5 successive days; for ED (maximum ILS): daily dosage giving maximum increase of life span, read-out: O.D. (optimum dosage); for ED30: daily dosage increasing average survival days by 30%, read-out: ILS30; for Survivors after 60 days / Max. ILS % / Therapeutic ratio TR: oral; for Survivors after 60 days: 6-membered group; for Max. ILS %: 60-day observation, versus control; for Therapeutic ratio TR: O.D./ILS30
Experimental: Tests were conducted in accordance with the method for measuring antitumor activity of National Cancer Center Tokyo (A, Hoshi et al, Farumashia 9 464 (1973)). Test compounds were each intraperitoneally (referred to as ip) or orally (referred to as op) administered once a day for 5 successive days to a 6-membered group of femal mice (BDF1 family, each weighing 20 to 23 g) 24 hours after 1×10^5 cells of Leukemia L1210 have been implantated into the abdominal cavities of the mice, and the effect was evaluated by comparing the survival days of treated groups with those of an untreated group of mice (control group) in 60-day observation. An increase percentage of life span (ILS%) was calculated from said average survival days compared with those of the control group. Further, therapeutic ratio (O.D./ILD30, referred to as T.R.) of each tested compound was calculated from the daily dosage of the compound necessary to increase said average survival days by 30% as compared with the control group (this dosage is referred to as ILS 30) and the daily dosage giving a maximum increase of life span to mice implantated with L1210 cells, namely an optimum dosage (referred to as O.D.). The results of five successive days intraperitoneal administrations of test compounds were shown in Tables I to III, and those of five successive oral administrations in Table IV.

Row | SMILES | ED (maximum ILS) (Leukemia L1210 [1]) [mg/kg] | ED30 (Leukemia L1210 [1]) [mg/kg] | Survivors after 60 days (Leukemia L1210 [1]) | Max. ILS % (Leukemia L1210 [1]) [%] | Therapeutic ratio TR (Leukemia L1210 [1]) | LD50 at 720 h [2] [mg/kg] | ED (maximum ILS) (Leukemia L1210 [3]) [mg/kg] | ED30 (Leukemia L1210 [3]) [mg/kg] | Survivors after 60 days (Leukemia L1210 [3]) | Max. ILS % (Leukemia L1210 [3]) [%] | Therapeutic ratio TR (Leukemia L1210 [3])
1 | COC(C)CN(C(=O)N(CCCl)N=O)[C@@H]1[C@@H](OCC(C)C)OC[C@@H](O)[C@H]1O (stereo partly drawn) [Compound 159, 3-(2-methoxy-n-propyl)-3-(isobutyl α-D-arabinopyranose-2-yl)-1-(2-chloroethyl)-1-nitrosourea] | 160 | 2.61 | 6/6 | > 700 | 61.3 | 520 | 180 | 10.9 | 5/6 | > 625 | 16.5
2 | CCOCCN(C(=O)N(CCCl)N=O)[C@H]1[C@@H](OCC(C)C)O[C@H](CO)[C@H](O)[C@@H]1O [Compound 123, 3-(2-ethoxyethyl)-3-(isobutyl α-D-galactopyranose-2-yl)-1-(2-chloroethyl)-1-nitrosourea] | 200 | 4.98 | 3/6 | > 365 | 40.2 | 730 | 240 | 13.2 | 3/6 | > 360 | 18.2
3 | CCC(COC)O[C@H]1O[C@H](CN(CC(C)(C)C)C(=O)N(CCCl)N=O)[C@@H](O)[C@H](O)[C@H]1O (stereo partly drawn) [Compound 185, 3-neopentyl-3-(1-methoxy-2-n-butyl α-D-glucopyranose-6-yl)-1-(2-chloroethyl)-1-nitrosourea] | 170 | 2.69 | 6/6 | > 700 | 63.1 | 550 | 200 | 8.16 | 5/6 | > 625 | 24.5
4 | COCC(C)N(C(=O)N(CCCl)N=O)[C@H]1[C@@H](O)[C@@H](CO)O[C@H](OCC(C)C)[C@@H]1O (stereo partly drawn) [Compound 126, 3-(1-methyl-2-methoxyethyl)-3-(isobutyl α-D-galactopyranose-3-yl)-1-(2-chloroethyl)-1-nitrosourea] | 250 | 6.22 | 3/6 | > 355 | 40.2 | 785 | 240 | 15.4 | 3/6 | > 350 | 15.6
5 | O=NN(CCCl)C(=O)N(CC1CCCO1)[C@H]1[C@H](OC2CCCCC2)OC[C@H](O)[C@@H]1O (stereo partly drawn) [Compound 156, 3-tetrahydrofurfuryl-3-(cyclohexyl α-L-arabinopyranose-2-yl)-1-(2-chloroethyl)-1-nitrosourea] | 150 | 2.45 | 6/6 | > 700 | 61.2 | 480 | 180 | 9.78 | 4/6 | > 460 | 18.4
6 | COC(C)CCO[C@H]1O[C@H](CN(C(=O)N(CCCl)N=O)C(C)(C)C)[C@@H](O)[C@H](O)[C@H]1O (stereo partly drawn) [Compound 198, 3-tert-butyl-3-(3-methoxy-n-butyl α-D-glucopyranose-6-yl)-1-(2-chloroethyl)-1-ntirosourea] | 180 | 2.76 | 6/6 | > 700 | 65.3 | 570 | 220 | 9.69 | 5/6 | > 640 | 22.7
7 | COC(C)CN(C[C@H]1O[C@H](OC(C)C)[C@H](O)[C@@H](O)[C@@H]1O)C(=O)N(CCCl)N=O (stereo partly drawn) [Compound 2, 3-(2-methoxy-n-propyl)-3-(isopropyl α-D-glucopyranose-6-yl)-1-(2-chloroethyl)-1-nitrosourea] | 140 | 2.3 | 6/6 | > 700 | 60.9 | 420 | 180 | 7.35 | 6/6 | > 700 | 24.5
8 | COCCCO[C@H]1O[C@H](CN(C(=O)N(CCCl)N=O)C2CCCCC2)[C@@H](O)[C@H](O)[C@H]1O [Compound 174, 3-cyclohexyl-3-(3-methoxy-n-propyl α-D-glucopyranose-6-yl)-1-(2-chloroethyl)-1-nitrosourea] | 180 | 2.78 | 6/6 | > 700 | 64.8 | 610 | 230 | 9.66 | 5/6 | > 620 | 23.8
9 | CC(C)CO[C@H]1O[C@H](CN(CC(C)(C)C)C(=O)N(CCCl)N=O)[C@@H](O)[C@H](O)[C@H]1O [Compound 183, 3-neopentyl-3-(isobutyl α-D-glucopyranose-6-yl)-1-(2-chloroethyl)-1-nitrosourea] | 170 | 3.01 | 6/6 | > 700 | 56.4 | 520 | 200 | 13.2 | 4/6 | > 460 | 15.2
10 | COC(C)CN(C(=O)N(CCCl)N=O)[C@H]1CO[C@@H](OCC(C)C)[C@H](O)[C@H]1O (stereo partly drawn) [Compound 153, 3-(2-methoxy-n-propyl)-3-(isobutyl α-L-arabinopyranose-4-yl)-1-(2-chloroethyl)-1-nitrosourea] | 150 | 2.57 | 5/6 | > 625 | 58.4 | 480 | 180 | 10.8 | 4/6 | > 425 | 16.7
11 | CCCCOC1OC(CO)C(O)C(N(CC(C)OC)C(=O)N(CCCl)N=O)C1O [Compound 83, 3-(2-methoxy-n-propyl)-3-(n-butyl α-D-glucopyranose-3-yl)-1-(2-chloroethyl)-1-nitrosourea] | 200 | 5.03 | 4/6 | > 425 | 39.8 | 665 | 240 | 16.8 | 3/6 | > 360 | 14.3
12 | O=NN(CCCl)C(=O)N[C@H]1C(O)O[C@H](CO)[C@@H](O)[C@@H]1O (stereo partly shown) [DCNU, reference compound] | 6.2 | 0.7 | 5/6 | > 625 | 8.9 | 39 | 100 | – | 0/6 | 20 | –
